Molecules are shown by their SMILES.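 Test compounds were applied to cells in 96-well plates for 48 hours at 5 doses. TGI: total growth inhibition.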

In PubChem BioAssay (NCI) one finds TGI data, which are given here for ten molecules.

What all share (assay): NCI tumour cell line growth inhibition, 48 h
Experiment [1] has as its system ACHN renal.
Experiment [2] concerns COLO 205 colon.
Experiment [3] deals with DU-145 prostate.
The test system of experiment [4] is HCT-116 colon.
Experiment [5] deals with HCT-15 colon.
Experiment [6] concerns HOP-62 NSCLC.
The test system of experiment [7] is HT29 colon.
Experiment [8] relates to K-562 leukemia.
Experiment [9] has as its system KM12 colon.
Experiment [10] concerns MDA-MB-231 breast.
Experiment [11] concerns OVCAR-5 ovarian.
Experiment [12] relates to SF-295 CNS.
Experiment [13] concerns SK-MEL-5 melanoma.
Experiment [14] relates to SNB-75 CNS.

As to `CCc1n[nH]c(=O)n1/N=C(\C)c1ccccc1`, the TGI in experiment [1], in experiment [2], in experiment [3], in experiment [4], in [5] and in [6] was above 100 µM each time. Moreover, the TGI in [7], in experiment [8], in experiment [9], in [10], in [11] and in experiment [12] was above 100 µM in each case. In experiment [13], this molecule had a TGI above 100 µM.

In the case of `COc1cc(C2S/C(=C/c3ccccc3)C(=O)N2c2cccc(NC(C)=O)c2)cc(OC)c1OC` (centres undefined), the TGI in experiment [1] was above 100 µM; in experiment [2], 86.6 µM; in experiment [4], 37.2 µM; in experiment [5] it was above 100 µM; in experiment [6], above 100 µM; in experiment [7] it was 59.7 µM. Besides, the TGI in experiment [8] was above 100 µM; in [9] it was 82 µM; in experiment [10], 50.7 µM; in [11], above 100 µM; in [12], above 100 µM; in experiment [13], above 100 µM. In [14], this molecule gave a TGI of 28 µM.

Turning to `CC1(C)OC[C@@H]([C@@]2(COC(c3ccccc3)(c3ccccc3)c3ccccc3)CC=CC(=O)O2)O1`, the TGI was above 100 µM in experiment [1]; 50.6 µM in experiment [2]; above 100 µM in experiment [3]; above 100 µM in [4]; above 100 µM in experiment [5]; above 100 µM in experiment [6]. Further, the TGI in [7], in experiment [8], in [9], in experiment [10], in experiment [11] and in experiment [12] was above 100 µM in each case. The TGI in experiment [14] worked out at 59.3 µM.

Regarding `O=C(Nc1ccccc1)Oc1ccc(C(=S)Nc2ccc(Br)cc2)cc1`, the TGI in experiment [1] is 97.9 µM; in experiment [2], 36.6 µM; in experiment [3] it was 81.8 µM; in experiment [4], 37.2 µM; in experiment [5] it was 34.5 µM; in experiment [6] it was 82.1 µM. The TGI in experiment [7] was 34.7 µM; in experiment [8], above 100 µM; in [9], 32.4 µM; in experiment [11], 46.4 µM; in [12] it was 84.3 µM; in [13] it was 31.1 µM.

`CC(=O)c1ccc(Nc2c3ccccc3nc3occc23)cc1`: the TGI in [1] is above 72.5 µM; in experiment [2], 0.136 µM; in [3], 5.39 µM; in [4] it was above 34.7 µM; in experiment [5], above 42.8 µM; in [6], above 100 µM. In addition, the TGI in [7] was 0.402 µM; in experiment [8] it was above 100 µM; in experiment [9], 1.59 µM; in [10], 0.541 µM; in experiment [11] it was above 100 µM; in experiment [13] it was 3.91 µM.

As to `N#C/C(=C(/O)CCl)c1nc2ccccc2o1`, the TGI in experiment [2] was 3.45 µM; in experiment [3], above 100 µM; in [4], 29.2 µM; in experiment [5] it was 4.46 µM; in experiment [6], 41.9 µM; in [7], 22.5 µM. The TGI is 9.36 µM in [8]; 53.3 µM in [9]; 9.41 µM in experiment [10]; 6.74 µM in experiment [12]; 3.83 µM in experiment [13]; 23.4 µM in [14].

Turning to `Oc1ccccc1C=Nc1ccc(-c2nc3ccccc3s2)cc1`, the TGI was 73 µM in [1]; 40.9 µM in experiment [2]; above 100 µM in experiment [3]; above 100 µM in experiment [4]; above 100 µM in [5]; 52.2 µM in experiment [6]. Besides, the TGI in experiment [7] was above 100 µM; in [8], above 100 µM; in [9], above 100 µM; in [11], above 100 µM; in experiment [12] it was 55.9 µM; in experiment [13] it was 31.9 µM. In experiment [14], this molecule came in with a TGI of 99.3 µM.

Take `O=P(NCCCO)(OCc1ccccc1)N(CCCl)CCCl` (centres undefined): the TGI in experiment [2], in [4], in experiment [5], in experiment [7], in experiment [8] and in [9] was above 100 µM each time. Moreover, the TGI in experiment [11], in experiment [12], in [13] and in [14] was above 100 µM in each case.

Regarding `COC(=O)c1c(O)ccc2c1c1cc3ccccc3c(O)c1n2CCc1ccc(OC)c(OC)c1`, the TGI in experiment [1] is above 100 µM; in [2], 30.4 µM; in [3] it was above 100 µM; in experiment [4] it was above 100 µM; in [5], above 100 µM; in experiment [6] it was above 100 µM. For the same molecule, the TGI in experiment [7] is 18.6 µM; in experiment [8], above 100 µM; in experiment [9], above 100 µM; in [10], above 100 µM; in experiment [11] it was above 100 µM; in experiment [12], above 100 µM. Moreover, in experiment [13], the TGI was above 100 µM.

As for `COc1ccc(C2C3CCc4ccccc4C3=NN2S(=O)(=O)c2cccc(C(=O)O)c2OC)cc1` (centres undefined), the TGI was 63.9 µM in experiment [1]; 5.6 µM in experiment [2]; above 100 µM in experiment [3]; above 100 µM in experiment [4]; 0.778 µM in experiment [5]; above 100 µM in experiment [6]. Also, the TGI was above 100 µM in [7]; above 100 µM in experiment [8]; above 100 µM in [9]; above 100 µM in experiment [10]; above 100 µM in experiment [11]; 35.1 µM in experiment [12]. Besides, the TGI in [13] is above 100 µM.
